Reference: patent publication US11141413B2, “Method of treating renal cell carcinoma using N-(4-(6,7-dimethoxyquinolin-4-yloxy)phenyl)-N′-(4-fluorophenyl)cyclopropane-1,1-dicarboxamide, (2S)-hydroxybutanedioate” (Exelixis, Inc., priority 2016, dated 2021)

Tested on: patients with advanced renal cell carcinoma
Experiment: METEOR quality of life (FKSI-19, FKSI-DRS, EQ-5D-5L) and time to deterioration
Assay type: in vivo, human
Details: for Able to work, LSMean change from baseline / Blood in my urine, LSMean change from baseline / Bone pain, LSMean change from baseline / Content with quality life, LSMean change from baseline / Coughing, LSMean change from baseline / Diarrhea, LSMean change from baseline / Enjoy life, LSMean change from baseline / Fatigued, LSMean change from baseline / Fevers, LSMean change from baseline / Good appetite, LSMean change from baseline / Lack of energy, LSMean change from baseline / Losing weight, LSMean change from baseline / Nausea, LSMean change from baseline / Pain, LSMean change from baseline / Short of breath, LSMean change from baseline / Side effects of treatment, LSMean change from baseline / Sleeping well, LSMean change from baseline / Weak all over, LSMean change from baseline / Worry condition worsen, LSMean change from baseline: FKSI-19 item; for DRS-Emotional, LSMean change from baseline / DRS-Physical, LSMean change from baseline / Function/Well-Being, LSMean change from baseline / Treatment Side Effects, LSMean change from baseline: FKSI-19 subscale; for EQ-VAS, Cabo vs Evero Intercept (change at Week 4) / EQ-VAS, Cabo vs Evero Slope / FKSI-19 Total, Cabo vs Evero Intercept (change at Week 4) / FKSI-19 Total, Cabo vs Evero Slope / FKSI-DRS (9-item), Cabo vs Evero Intercept (change at Week 4) / FKSI-DRS (9-item), Cabo vs Evero Slope / EQ-Index, Evero Intercept (change at Week 4) / EQ-VAS, Evero Intercept (change at Week 4) / FKSI-19 Total, Evero Intercept (change at Week 4) / FKSI-DRS (9-item), Evero Intercept (change at Week 4): growth curve analysis; for Median time to deterioration (TTD): earlier of death, rPD, ≥4-point FKSI-DRS decrease from baseline
Description: Patients completed the 19-item Functional Assessment of Cancer Therapy-Kidney Symptoms Index (FKSI-19) and the 5-level EuroQoL-5 Dimensions (EQ-5D-5L) questionnaires at baseline and throughout the study. The 9-item FKSI-Disease Related Symptoms (FKSI-DRS) is a subset of FKSI-19. Data were summarized descriptively and by mixed-effects repeated-measures analysis (clinically relevant difference was an effect size ≥0.3). Time to deterioration (TTD) was defined as earlier of death, radiographic progressive disease or ≥4-point decrease from baseline in FKSI-DRS.
QoL was measured by using two validated patient self-reported instruments: the Functional Assessment of Cancer Therapy-Kidney Symptom Index-19 item (FKSI-19) and EuroQol Group's EQ-5D-5L questionnaires. Patients were required to complete the QoL questionnaires before any assessments at each clinic visit prior to the first dose, every 4 weeks through Week 25, every 8 weeks thereafter for the first year, then every 12 weeks thereafter. The QoL assessments were conducted per protocol prior to the patient knowing the results of their next tumor assessment. These assessments were performed regardless of whether study treatment was given, reduced, interrupted, or discontinued until the date of the last tumor imaging assessment. Questionnaires were provided on paper in the patient's own language.
The FKSI-19 instrument is a 19-item self-reported questionnaire with a total score and four subscales that assesses disease-related symptoms (DRS), treatment side effects, and function/well-being associated with advanced kidney cancer. It queries symptom severity and interference in activity and general health perceptions (Rao D, Butt Z, Rosenbloom S, Robinson D Jr, Von Roenn J, Kuzel T M, Cella D. A Comparison of the Renal Cell Carcinoma-Symptom Index (RCC-SI) and the Functional Assessment of Cancer Therapy-Kidney Symptom Index (FKSI). J Pain Symptom Manage. 2009; 38(2):291-8; Rothrock N E, Jensen S E, Beaumont J L, Abernethy A P, Jacobsen P B, Syrjala K, Cella D. Development and initial validation of the NCCN/FACT symptom index for advanced kidney cancer. Value Health. 2013; 16(5):789-96). The FKSI-19 comprises four sub-scales (DRS-Physical, DRS-Emotional, Treatment Side Effects, and Function/Well Being; Table 2.1). Each of the items is scored on a 5-point scale from 0 (not at all) to 4 (very much). Higher FKSI-19 scores indicate improvement. The FKSI-19 ensures content validity congruent with FDA Guidance (FDA. Guidance for Industry. Patient-Reported Outcome Measures: Use in Medical Product Development to Support Labeling Claims. December 2009). and was developed from a previous 9-item DRS version (FKSI-DRS; lack of energy, pain, losing weight, fatigue, short of breath, fevers, bone pain, coughing, blood in urine). The FKSI-19 includes selected treatment side effects that are important to the patient and physician.
The standardized measure of health status EQ-5D-5L, developed by the EuroQol, was also used in this study in order to measure generic health status (Herdman M, Gudex C, Lloyd A, Janssen M, Kind P, Parkin D, t al. Development and preliminary testing of the new five-level version of EQ-5D (EQ-5D-5L). Qual Life Res. 2011; 20(10):1727-36). It comprises five functional and symptom dimensions: mobility, self-care, usual activities, pain/discomfort, and anxiety/depression. Levels indicate increasing severity from Level 1 (no problem) to Levels 2 through 5 (mild problem to extreme problem). The digits from the 5 dimensions were converted into a single population-based index value normalized across the nine countries in the study for which index value sets were available (van Hout B, Janssen M F, Feng Y S, Kohlmann T, Busschbach J, Golicki D, et al. Interim scoring for the EQ-5D-5L: mapping the EQ-5D-5L to EQ-5D-3L value sets. Value Health. 2012; 15(5):708-15). Index values range from 0 to 1 and a higher index score indicates better health. […]

[1] = bone metastases per IRC at baseline: No
[2] = bone metastases per IRC at baseline: Yes
[3] = cabozantinib vs everolimus, positive favors cabozantinib
[4] = Late Dropout (Week 41 or later)

Structure (SMILES): COc1cc2nccc(Oc3ccc(NC(=O)C4(C(=O)Nc5ccc(F)cc5)CC4)cc3)c2cc1OC [cabozantinib]
- Able to work, LSMean change from baseline (repeated measures, ITT): −0.151
- Blood in my urine, LSMean change from baseline (repeated measures, ITT): 0.005
- Bone pain, LSMean change from baseline (repeated measures, ITT): 0.049
- Content with quality life, LSMean change from baseline (repeated measures, ITT): −0.035
- Coughing, LSMean change from baseline (repeated measures, ITT): 0.237
- Diarrhea, LSMean change from baseline (repeated measures, ITT): −1.28
- Enjoy life, LSMean change from baseline (repeated measures, ITT): −0.017
- Fatigued, LSMean change from baseline (repeated measures, ITT): −0.325
- Fevers, LSMean change from baseline (repeated measures, ITT): 0.056
- Good appetite, LSMean change from baseline (repeated measures, ITT): −0.166
- Lack of energy, LSMean change from baseline (repeated measures, ITT): −0.244
- Losing weight, LSMean change from baseline (repeated measures, ITT): −0.533
- Nausea, LSMean change from baseline (repeated measures, ITT): −0.236
- Pain, LSMean change from baseline (repeated measures, ITT): 0.125
- Short of breath, LSMean change from baseline (repeated measures, ITT): 0.029
- Side effects of treatment, LSMean change from baseline (repeated measures, ITT): −0.850
- Sleeping well, LSMean change from baseline (repeated measures, ITT): 0.018
- Weak all over, LSMean change from baseline (repeated measures, ITT): −0.281
- Worry condition worsen, LSMean change from baseline (repeated measures, ITT): 0.398
- DRS-Emotional, LSMean change from baseline (repeated measures, ITT): 0.398
- DRS-Physical, LSMean change from baseline (repeated measures, ITT): −1.093
- Function/Well-Being, LSMean change from baseline (repeated measures, ITT): −0.230
- Treatment Side Effects, LSMean change from baseline (repeated measures, ITT): −2.416
- Median TTD [1]: 5.5 mo
- TTD HR, cabozantinib vs everolimus [1]: 0.69
- Median TTD [2]: 5.6 mo
- TTD HR, cabozantinib vs everolimus [2]: 0.49
- Able to work, Effect Size [3]: −0.037
- Blood in my urine, Effect Size [3]: 0.023
- Bone pain, Effect Size [3]: −0.008
- Content with quality life, Effect Size [3]: −0.014
- Coughing, Effect Size [3]: 0.28
- DRS-Emotional, Effect Size [3]: 0.004
- DRS-Physical, Effect Size [3]: 0.046
- EQ-VAS, Effect Size [3]: −0.003
- Enjoy life, Effect Size [3]: −0.002
- FKSI-19 (19-item) Total Score, Effect Size [3]: −0.13
- FKSI-DRS (9-item), Effect Size [3]: 0.087
- Fatigued, Effect Size [3]: −0.017
- Fevers, Effect Size [3]: 0.13
- Function/Well-Being, Effect Size [3]: −0.019
- Good appetite, Effect Size [3]: −0.23
- Lack of energy, Effect Size [3]: −0.033
- Losing weight, Effect Size [3]: −0.21
- Pain, Effect Size [3]: 0.052
- Side effects of treatment, Effect Size [3]: −0.24
- Sleeping well, Effect Size [3]: 0.12
- Weak all over, Effect Size [3]: −0.015
- Worry condition worsen, Effect Size [3]: 0.004
- EQ-VAS, Cabo vs Evero Intercept (change at Week 4) (Early Dropout (before Week 24)): −1.933
- EQ-VAS, Cabo vs Evero Slope (Early Dropout (before Week 24)): 0.498
- FKSI-19 Total, Cabo vs Evero Intercept (change at Week 4) (Early Dropout (before Week 24)): 0.241
- FKSI-19 Total, Cabo vs Evero Slope (Early Dropout (before Week 24)): 0.131
- FKSI-DRS (9-item), Cabo vs Evero Intercept (change at Week 4) (Early Dropout (before Week 24)): 1.445
- FKSI-DRS (9-item), Cabo vs Evero Slope (Early Dropout (before Week 24)): 0.037
- EQ-VAS, Cabo vs Evero Intercept (change at Week 4) [4]: −4.749
- EQ-VAS, Cabo vs Evero Slope [4]: 0.134
- FKSI-19 Total, Cabo vs Evero Intercept (change at Week 4) [4]: −5.141
- FKSI-19 Total, Cabo vs Evero Slope [4]: 0.082
- FKSI-DRS (9-item), Cabo vs Evero Intercept (change at Week 4) [4]: −1.307
- FKSI-DRS (9-item), Cabo vs Evero Slope [4]: 0.046
- EQ-VAS, Cabo vs Evero Intercept (change at Week 4) (Median Dropout (Weeks 25-33)): −0.352
- EQ-VAS, Cabo vs Evero Slope (Median Dropout (Weeks 25-33)): 0.146
- FKSI-19 Total, Cabo vs Evero Intercept (change at Week 4) (Median Dropout (Weeks 25-33)): −2.003
- FKSI-19 Total, Cabo vs Evero Slope (Median Dropout (Weeks 25-33)): 0.141
- FKSI-DRS (9-item), Cabo vs Evero Intercept (change at Week 4) (Median Dropout (Weeks 25-33)): −0.313
- FKSI-DRS (9-item), Cabo vs Evero Slope (Median Dropout (Weeks 25-33)): 0.094
- TTD HR, cabozantinib vs everolimus (overall ITT, unstratified): 0.65
- Median time to deterioration (TTD) (overall ITT): 5.5 mo
- EQ-VAS, LSMean change from baseline (repeated measures, ITT): −1.32
- FKSI-19 (19-item) Total Score, LSMean change from baseline (repeated measures, ITT): −3.483
- FKSI-DRS (9-item), LSMean change from baseline (repeated measures, ITT): −0.52

Structure (SMILES): CO[C@H]1C[C@@H]2CC[C@@H](C)[C@@](O)(O2)C(=O)C(=O)N2CCCC[C@H]2C(=O)O[C@H]([C@H](C)C[C@@H]2CC[C@@H](OCCO)[C@H](OC)C2)CC(=O)[C@H](C)/C=C(\C)[C@@H](O)[C@@H](OC)C(=O)[C@H](C)C[C@H](C)/C=C/C=C/C=C/1C [everolimus]
- Able to work, LSMean change from baseline (repeated measures, ITT): −0.101
- Blood in my urine, LSMean change from baseline (repeated measures, ITT): −0.001
- Bone pain, LSMean change from baseline (repeated measures, ITT): 0.057
- Content with quality life, LSMean change from baseline (repeated measures, ITT): −0.017
- Coughing, LSMean change from baseline (repeated measures, ITT): −0.059
- Diarrhea, LSMean change from baseline (repeated measures, ITT): −0.326
- Enjoy life, LSMean change from baseline (repeated measures, ITT): −0.014
- Fatigued, LSMean change from baseline (repeated measures, ITT): −0.305
- Fevers, LSMean change from baseline (repeated measures, ITT): −0.021
- Good appetite, LSMean change from baseline (repeated measures, ITT): 0.181
- Lack of energy, LSMean change from baseline (repeated measures, ITT): −0.207
- Losing weight, LSMean change from baseline (repeated measures, ITT): −0.301
- Nausea, LSMean change from baseline (repeated measures, ITT): 0.069
- Pain, LSMean change from baseline (repeated measures, ITT): 0.067
- Short of breath, LSMean change from baseline (repeated measures, ITT): −0.271
- Side effects of treatment, LSMean change from baseline (repeated measures, ITT): −0.523
- Sleeping well, LSMean change from baseline (repeated measures, ITT): −0.152
- Weak all over, LSMean change from baseline (repeated measures, ITT): −0.265
- Worry condition worsen, LSMean change from baseline (repeated measures, ITT): 0.393
- DRS-Emotional, LSMean change from baseline (repeated measures, ITT): 0.393
- DRS-Physical, LSMean change from baseline (repeated measures, ITT): −1.386
- Function/Well-Being, LSMean change from baseline (repeated measures, ITT): −0.169
- Treatment Side Effects, LSMean change from baseline (repeated measures, ITT): −0.814
- Median TTD [1]: 3.8 mo
- Median TTD [2]: 1.9 mo
- EQ-Index, Evero Intercept (change at Week 4) (Early Dropout (before Week 24)): −0.046
- EQ-VAS, Evero Intercept (change at Week 4) (Early Dropout (before Week 24)): −2.474
- FKSI-19 Total, Evero Intercept (change at Week 4) (Early Dropout (before Week 24)): −3.643
- FKSI-DRS (9-item), Evero Intercept (change at Week 4) (Early Dropout (before Week 24)): −2.002
- EQ-Index, Evero Intercept (change at Week 4) [4]: 0.033
- EQ-VAS, Evero Intercept (change at Week 4) [4]: 1.012
- FKSI-19 Total, Evero Intercept (change at Week 4) [4]: 1.105
- FKSI-DRS (9-item), Evero Intercept (change at Week 4) [4]: 0.453
- EQ-Index, Evero Intercept (change at Week 4) (Median Dropout (Weeks 25-33)): −0.018
- EQ-VAS, Evero Intercept (change at Week 4) (Median Dropout (Weeks 25-33)): −1.181
- FKSI-19 Total, Evero Intercept (change at Week 4) (Median Dropout (Weeks 25-33)): −1.838
- FKSI-DRS (9-item), Evero Intercept (change at Week 4) (Median Dropout (Weeks 25-33)): −0.843
- Median time to deterioration (TTD) (overall ITT): 3.7 mo
- EQ-Index, LSMean change from baseline (repeated measures, ITT): −0.02
- EQ-VAS, LSMean change from baseline (repeated measures, ITT): −1.27
- FKSI-19 (19-item) Total Score, LSMean change from baseline (repeated measures, ITT): −2.214
- FKSI-DRS (9-item), LSMean change from baseline (repeated measures, ITT): −0.93
